Source: ChEMBL document CHEMBL1201862, “PubChem BioAssay data set” (2004)
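Test compounds were applied to cells in 96-well plates for 48 hours at 5 doses. Here, GI50 denotes the concentration required for 50% inhibition of growth.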 The source made the active and inactive calls. Rule as the data show it: active = GI50 up to about 1.1 µM and inactive = higher. Numbered stars: 1 amine (or outer) side, 2 acyl side, 3 side chain; on linkers, the order of the positions; unused ones are H or OH. Square brackets hold non-standard residues; d marks the D form. Peptide text beside a SMILES is read from it. X55 = CC[C@H](C)[C@H](OC(=O)[C@@H](C)[C@@H](CC)N[*:1])C(=O)[*:2]; X31 = C[C@H](N[*:1])C(=O)C(C)(C)C(=O)[*:2]; NMeY = CN[C@@H](Cc1ccc(O)cc1)C(=O)O; NMeL = CN[C@@H](CC(C)C)C(=O)O; NMeV = CN[C@H](C(=O)O)C(C)C

Assays:
Assay in all cases: NCI anticancer screen, dose series, 48 h
HOP-18 = system: HOP-18
KM-20L2 = system: KM-20L2
DLD-1 = system: DLD-1
XF498 = system: XF498
SNB-78 = system: SNB-78
DMS-114 = system: DMS-114
LXFL 529 = system: LXFL 529
M19-MEL = system: M19-MEL
RXF 631 = system: RXF 631

SMILES | GI50 (HOP-18) | GI50 (KM-20L2) | GI50 (DLD-1) | GI50 (XF498) | GI50 (SNB-78) | GI50 (DMS-114) | GI50 (LXFL 529) | GI50 (M19-MEL) | GI50 (RXF 631)
O=C1[C@@H]2C(c3ccc(Cl)cc3Cl)=NO[C@@H]2C(=O)N1c1ccc(Cc2ccc(N3C(=O)[C@H]4C(c5ccc(Cl)cc5Cl)=NO[C@H]4C3=O)cc2)cc1 | > 100 µM (inactive) | > 100 µM (inactive) | > 100 µM (inactive) | > 100 µM (inactive) | 46.8 µM (inactive) | 39.5 µM (inactive) | 15.6 µM (inactive) | > 100 µM (inactive) | 
Cc1cc(NS(=O)(=O)c2ccc(NC(=O)c3cccc4c(Nc5ccc(S(=O)(=O)Nc6cc(C)on6)cc5)c5ccccc5nc34)cc2)no1 | 19.4 µM (inactive) | > 100 µM (inactive) | > 100 µM (inactive) | 42.3 µM (inactive) | 35.1 µM (inactive) | 35.2 µM (inactive) | 24.7 µM (inactive) | 35.8 µM (inactive) | 
Cc1cc2c(c3c1c1ccccc1n3C)C(=O)c1ccccc1C2=O |  | > 100 µM (inactive) | > 100 µM (inactive) | 60.1 µM (inactive) | > 100 µM (inactive) | > 100 µM (inactive) | > 100 µM (inactive) | > 100 µM (inactive) | > 100 µM (inactive)
CC1=NN(C(=O)c2ccc(Cl)cc2)C(=O)/C1=C/c1ccco1 |  | > 100 µM (inactive) | > 100 µM (inactive) | > 100 µM (inactive) | 46.1 µM (inactive) | > 100 µM (inactive) | > 100 µM (inactive) | > 100 µM (inactive) | 
COc1ccc(C2CCC(Cl)(OC)CC2C=O)cc1 (stereo not drawn) | 68.9 µM (inactive) | 67.1 µM (inactive) | 91.4 µM (inactive) |  |  | 27.5 µM (inactive) | > 100 µM (inactive) | 32.1 µM (inactive) | 
Cc1ccc(NC(=O)C2C(=O)C(=O)N(c3ccc(C)cc3)C2=O)cc1 (stereo not drawn) | > 100 µM (inactive) | > 100 µM (inactive) | > 100 µM (inactive) |  | > 100 µM (inactive) | > 100 µM (inactive) | > 100 µM (inactive) | > 100 µM (inactive) | 
Cc1ccccc1CN1CC=c2ccccc2=N1 | > 100 µM (inactive) | > 100 µM (inactive) | > 100 µM (inactive) | 68.1 µM (inactive) | > 100 µM (inactive) | > 100 µM (inactive) |  | > 100 µM (inactive) | > 100 µM (inactive)
CC(C)(C)N/N=N/c1cn(C2OC(CO)C(O)C2O)c(=O)[nH]c1=O (stereo not drawn) | > 100 µM (inactive) | > 100 µM (inactive) | 43.3 µM (inactive) |  | > 100 µM (inactive) | 40.3 µM (inactive) | > 100 µM (inactive) | > 100 µM (inactive) | 
COC(=O)C(CCC1(C)OCCO1)C(C)=O (stereo not drawn) | > 100 µM (inactive) | > 100 µM (inactive) | > 100 µM (inactive) | > 100 µM (inactive) | > 100 µM (inactive) | > 100 µM (inactive) | > 100 µM (inactive) | > 100 µM (inactive) | > 100 µM (inactive)
CCCCCCCCCCCCCS(=O)(=O)O | 3.08 µM (inactive) | > 100 µM (inactive) | > 100 µM (inactive) | > 100 µM (inactive) | > 100 µM (inactive) | > 100 µM (inactive) | > 100 µM (inactive) | > 100 µM (inactive) | > 100 µM (inactive)
CC1C[C@H](OC(N)=O)C(C)CC1=O (stereo partly drawn) | > 100 µM (inactive) | > 100 µM (inactive) | > 100 µM (inactive) | > 100 µM (inactive) | > 100 µM (inactive) | > 100 µM (inactive) | > 100 µM (inactive) | > 100 µM (inactive) | 
COc1cc(CCc2ccc(OC(C)=O)cc2)cc(OC)c1OC | > 100 µM (inactive) | > 100 µM (inactive) | > 100 µM (inactive) |  | > 100 µM (inactive) | 55 µM (inactive) | > 100 µM (inactive) | > 100 µM (inactive) | 
Oc1cc(-c2ccccc2)nc2cc3c(cc12)OCO3 | > 100 µM (inactive) | 7.35 µM (inactive) | 6.56 µM (inactive) | 26.9 µM (inactive) | 3.72 µM (inactive) |  | 1.82 µM (inactive) | 3.21 µM (inactive) | 2.9 µM (inactive)
CC[C@H](C)[C@@H]1OC(=O)[C@@H](C)[C@@H](CC)NC(=O)[C@H](C)NC(=O)C(C)(C)C(=O)[C@H](C)NC(=O)[C@H](Cc2ccc(OC)cc2)N(C)C(=O)[C@H](C(C)C)N(C)C(=O)CNC(=O)[C@H](CC(C)C)N(C)C(=O)CNC1=O [DOLASTATIN 11] (cyclo(A[X55]G[NMeL]G[NMeV][NMeY](Me)[X31])) | < 0.0118 µM (active) | < 0.0197 µM (active) | < 0.0361 µM (active) | 0.0248 µM (active) | 0.0514 µM (active) | < 0.0203 µM (active) | < 0.0166 µM (active) | 0.344 µM (active) | 
